Here are results for 7 substances from patent publication US10717757B2, “Ketolides having antibacterial activity” (BIOPHARMATI SA, priority 2016, dated 2020).

Where two headings read alike, the source gives them in different places.

In series [1] the test system is S. pneumoniae AUCC483, macrolide resistant & penicillin sensitive. Put plainly: Minimum inhibitory concentration (MIC), broth microdilution, AUCC483. In kind it is cell-based, Streptococcus pneumoniae. As for the experimental part: (§1) Protocols for Determining Minimum Inhibitory Concentration (MIC) of Test Compounds Against Streptococcus Pneumoniae Strains
(§2) The test strains are revived from frozen stock on blood agar plates and incubated at 35±2° C. for 18-20 hours in 5% CO2. Colonies are directly suspended from an overnight grown agar culture in CAMHB/saline and optical density adjusted to 0.5 McFarland turbidity standard (1-2×10^8 cfu/mL). Adjusted cultures are further diluted 1:100 using CAMHB such that after inoculation each well finally contains ˜5×10^5 cfu/mL. For broth dilution testing of Streptococcus species, CAMHB is supplemented with 2.5-5% v/v LHB. Colony counts of inoculum suspension is estimated by ten-fold serial dilutions and plating each dilution on agar plate. After incubation, the plates are observed for growth and microbial counts determined.
(§3) Compounds are weighed and dissolved in water/DMSO/other solvent to yield 1 mg/mL stock solution. Serial two-fold dilutions of the test compounds and reference antibiotics are prepared. 50 μL of the diluted drug solutions are dispensed in wells of microtiter trays (96 well).
(§4) To each of the wells of the microtiter tray, 50 μL of the diluted organism are inoculated to obtain a final inoculum density of ˜5×10^5 cfu/mL. Broth control, compound control and organism control wells are set up.
(§5) MIC testing are done in duplicates
(§6) MIC is defined as the lowest concentration of an antimicrobial agent that prevents visible growth of a microorganism in broth dilution susceptibility test.
(§7) After incubation period, growth of organism in the wells are detected by unaided eye facilitated by a viewing device. The amount of growth in the drug-containing wells are compared with the amount of growth in the organism-control wells.

Another series addresses CYP3A4 (Homo sapiens, UniProt P08684). Put plainly: Cytochrome P4503A4 inhibition assay, human liver microsomes, LC-MS/MS probe substrate method. To be noted: for IC50: human liver microsomes 0.1 mg/mL, 10 min; for CYP3A4 inhibition in comparison with solithromycin and ketoconazole: summary of Table 1.
Series [2] deals with S. pneumoniae AUCC488, macrolide & penicillin resistant. Put plainly: Minimum inhibitory concentration (MIC), broth microdilution, AUCC488. In kind it is cell-based, Streptococcus pneumoniae. How it is done:
as §1, §2, §3, §4, §5, §6, §7

For series [3], the system named is S. pneumoniae AUCC489, macrolide & penicillin resistant. Nature of the series: Minimum inhibitory concentration (MIC), broth microdilution, AUCC489. Format: cell-based, Streptococcus pneumoniae. As for the experimental part: as §1, §2, §3, §4, §5, §6, §7
Series [4] relates to S. pneumoniae AUCC479, macrolide & penicillin sensitive. Put plainly: Minimum inhibitory concentration (MIC), broth microdilution, AUCC479. Format: cell-based, Streptococcus pneumoniae. How it is done:
as §1, §2, §3, §4, §5, §6, §7

The subject of series [5] is S. pneumoniae ATCC 49619 (CLSI QC strain). Put plainly: Minimum inhibitory concentration (MIC), broth microdilution, QC strain. In kind it is cell-based, Streptococcus pneumoniae. To be noted: MIC in duplicates. As for the experimental part:
as §1, §2, §3, §4, §5, §6, §7

Where [6] appears, read: read-out: IC50 CYP3A4 (midazolam), 5 μM midazolam.

CYP3A4, sequence (P08684 whole entry): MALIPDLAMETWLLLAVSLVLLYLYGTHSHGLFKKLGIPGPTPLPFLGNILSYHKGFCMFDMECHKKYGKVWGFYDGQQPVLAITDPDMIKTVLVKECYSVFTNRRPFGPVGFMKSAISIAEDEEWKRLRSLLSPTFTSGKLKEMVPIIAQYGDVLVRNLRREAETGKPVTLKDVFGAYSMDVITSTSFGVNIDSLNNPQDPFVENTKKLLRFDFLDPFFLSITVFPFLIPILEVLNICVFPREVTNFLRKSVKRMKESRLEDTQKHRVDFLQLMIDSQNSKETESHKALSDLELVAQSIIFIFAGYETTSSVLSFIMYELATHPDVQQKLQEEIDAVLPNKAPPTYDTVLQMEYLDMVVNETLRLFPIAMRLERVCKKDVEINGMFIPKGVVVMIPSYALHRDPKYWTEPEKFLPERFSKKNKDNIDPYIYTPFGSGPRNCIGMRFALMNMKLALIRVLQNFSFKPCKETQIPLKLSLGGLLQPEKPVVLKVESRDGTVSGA
Description for CYP3A4: Cytochrome P4503A4 Inhibition Assay for Determining IC50
The potential of the compound to inhibit CYP 3A4 was tested by the LC-MS/MS based probe substrate method using human liver microsomes. Midazolam or testosterone, which are metabolized to hydroxymidazolam or hydroxytestosterone by CYP 3A4, were the probe substrates used. […] NADPH was added as the cofactor. […] After incubation for ten minutes, the amount of 1-hydroxymidazolam or 6β-hydroxyltestosterone formed was determined by LC-MS/MS method as a measure of enzyme activity. Percent inhibition of enzyme activity was calculated based on the amount of metabolites (1-hydroxymidazolam or 6β-hydroxyltestosterone) formed for each sample relative to the basal control and plotted in a curve versus the compound concentration to obtain the IC50.

Take “(3aS,4R,7R,9R,10R,11R,13R,15R,15aR)-10-{[(2S,3R,4S,6R)-4-(dimethylamino)-3-hydroxy-6-methyloxan-2-yl]oxy}-4-ethyl-1-{2-[ethyl(methyl)amino]ethyl}-3a,7,9,11,13,15-hexamethyl-11-{[(2E)-3-(quinolin-3-yl)prop-2-en-1-yl]oxy}-tetradecahydro-1H-oxacyclotetradeca[4,3-d][1,3]oxazole-2,6,8,14-tetrone [Compound 13G]”: the “MIC Strep. Pneumoniae AUCC 483 penS, macR cMLS” value in series [1] is 1 to 2 µg/mL. Also, on CYP3A4 (setting [6]), the IC50 worked out at 8.8 µM. Moreover, the “CYP3A4 inhibition in comparison with solithromycin and ketoconazole” value (“CYP3A4 inhibition in comparison” for short) on CYP3A4 was “lower IC50 inhibition of CYP3A4 inhibition”. Moreover, in series [2], the “MIC Strep. Pneumoniae AUCC 488 penR, macR M or iMLS” value (“MIC Strep. Pneumoniae AUCC 488 penR” below) fell in the range of 0.5 to 1 µg/mL. The “MIC Strep. Pneumoniae AUCC 489 penR, macR cMLS” value in series [3] lay in the range of 0.5 to 1 µg/mL. Moreover, in series [4], the “MIC Strep. Pneumoniae AUCC 479 penS, macS” value was 0.03 to 0.06 µg/mL. Further, in series [5], the “MIC Strep. Pneumoniae ATCC49619 QC strain” value is 0.12 to 0.25 µg/mL.
In the case of “(3aS,4R,7R,9R,10R,11R,13R,15R,15aR)-10-{[(2S,3R,4S,6R)-4-(dimethylamino)-3-hydroxy-6-methyloxan-2-yl]oxy}-4-ethyl-1-{[(2R)-1-ethylpyrrolidin-2-yl]methyl}-3a,7,9,11,13,15-hexamethyl-11-{[(2E)-3-(quinolin-3-yl)prop-2-en-1-yl]oxy}-tetradecahydro-1H-oxacyclotetradeca[4,3-d][1,3]oxazole-2,6,8,14-tetrone [Compound 13D]”, the “MIC Strep. Pneumoniae AUCC 483 penS, macR cMLS” value in series [1] lay within 0.25 to 0.5 µg/mL. For the same substance, the IC50 at CYP3A4 (setting [6]) was 2.9 µM. In addition, on CYP3A4, the “CYP3A4 inhibition in comparison” value was “lower IC50 inhibition of CYP3A4 inhibition”. In addition, the “MIC Strep. Pneumoniae AUCC 488 penR” value in series [2] lay in the range of 0.25 to 0.5 µg/mL. For the same substance, the “MIC Strep. Pneumoniae AUCC 489 penR, macR cMLS” value in series [3] is 0.12 to 0.25 µg/mL. Also, the “MIC Strep. Pneumoniae AUCC 479 penS, macS” value in series [4] is 0.015 to 0.03 µg/mL. Also, the “MIC Strep. Pneumoniae ATCC49619 QC strain” value in series [5] is 0.03 to 0.06 µg/mL.
With “(3aS,4R,7R,9R,10R,11R,13R,15R,15aR)-10-{[(2S,3R,4S,6R)-4-(dimethylamino)-3-hydroxy-6-methyloxan-2-yl]oxy}-4-ethyl-1-{[(2S)-1-ethylpyrrolidin-2-yl]methyl}-3a,7,9,11,13,15-hexamethyl-11-{[(2E)-3-(quinolin-3-yl)prop-2-en-1-yl]oxy}-tetradecahydro-1H-oxacyclotetradeca[4,3-d][1,3]oxazole-2,6,8,14-tetrone [Compound 13C]”, the “MIC Strep. Pneumoniae AUCC 483 penS, macR cMLS” value in series [1] is 0.5 to 1 µg/mL. In addition, on CYP3A4 (setting [6]), the IC50 came to 1.8 µM. Besides, at CYP3A4, the “CYP3A4 inhibition in comparison” value was “lower IC50 inhibition of CYP3A4 inhibition”. The “MIC Strep. Pneumoniae AUCC 488 penR” value in series [2] stood at 0.5 µg/mL. In series [3], the “MIC Strep. Pneumoniae AUCC 489 penR, macR cMLS” value is 0.5 to 1 µg/mL. In addition, the “MIC Strep. Pneumoniae AUCC 479 penS, macS” value in series [4] turned out to be 0.03 µg/mL. In addition, the “MIC Strep. Pneumoniae ATCC49619 QC strain” value in series [5] is 0.06 to 0.12 µg/mL.
On to “(3aS,4R,7R,9R,10R,11R,13R,15R,15aR)-10-{[(2S,3R,4S,6R)-4-(dimethylamino)-3-hydroxy-6-methyloxan-2-yl]oxy}-4-ethyl-3a,7,9,11,13,15-hexamethyl-1-[2-(4-methylpiperazin-1-yl)ethyl]-11-{[(2E)-3-(quinolin-3-yl)prop-2-en-1-yl]oxy}-tetradecahydro-1H-oxacyclotetradeca[4,3-d][1,3]oxazole-2,6,8,14-tetrone [Compound 13K]”, for which the “MIC Strep. Pneumoniae AUCC 483 penS, macR cMLS” value in series [1] lay in the range of 0.5 to 1 µg/mL. On CYP3A4 (setting [6]), the IC50 was found to be 6.5 µM. In addition, the “CYP3A4 inhibition in comparison” value on CYP3A4 is “lower IC50 inhibition of CYP3A4 inhibition”. The “MIC Strep. Pneumoniae AUCC 488 penR” value in series [2] worked out at 1 µg/mL. The “MIC Strep. Pneumoniae AUCC 489 penR, macR cMLS” value in series [3] lay in the range of 0.5 to 1 µg/mL. The “MIC Strep. Pneumoniae AUCC 479 penS, macS” value in series [4] lay within 0.03 to 0.06 µg/mL. Also, the “MIC Strep. Pneumoniae ATCC49619 QC strain” value in series [5] fell in the range of 0.06 to 0.12 µg/mL.
With “(3aS,4R,7R,9R,10R,11R,13R,15R,15aR)-10-{[(2S,3R,4S,6R)-4-(dimethylamino)-3-hydroxy-6-methyloxan-2-yl]oxy}-4-ethyl-3a,7,9,11,13,15-hexamethyl-1-[2-(pyrrolidin-1-yl)ethyl]-11-{[(2E)-3-(quinolin-3-yl)prop-2-en-1-yl]oxy}-tetradecahydro-1H-oxacyclotetradeca[4,3-d][1,3]oxazole-2,6,8,14-tetrone [Compound 13I]”, the “MIC Strep. Pneumoniae AUCC 483 penS, macR cMLS” value in series [1] lay in the range of 0.25 to 1 µg/mL. The IC50 on CYP3A4 (setting [6]) came to 2.1 µM. In addition, the “CYP3A4 inhibition in comparison” value at CYP3A4 is on record as “lower IC50 inhibition of CYP3A4 inhibition”. The “MIC Strep. Pneumoniae AUCC 488 penR” value in series [2] was in the range of 0.25 to 0.5 µg/mL. For the same substance, the “MIC Strep. Pneumoniae AUCC 489 penR, macR cMLS” value in series [3] was in the range of 0.25 to 1 µg/mL. Moreover, in series [4], the “MIC Strep. Pneumoniae AUCC 479 penS, macS” value fell in the range of 0.015 to 0.03 µg/mL. Moreover, the “MIC Strep. Pneumoniae ATCC49619 QC strain” value in series [5] lay within 0.03 to 0.06 µg/mL.
“(3aS,4R,7R,9R,10R,11R,13R,15R,15aR)-10-{[(2S,3R,4S,6R)-4-(dimethylamino)-3-hydroxy-6-methyloxan-2-yl]oxy}-4-ethyl-3a,7,9,11,13,15-hexamethyl-1-[3-(morpholin-4-yl)propyl]-11-{[(2E)-3-(quinolin-3-yl)prop-2-en-1-yl]oxy}-tetradecahydro-1H-oxacyclotetradeca[4,3-d][1,3]oxazole-2,6,8,14-tetrone [Compound 13J]”: the “MIC Strep. Pneumoniae AUCC 483 penS, macR cMLS” value in series [1] lay within 0.5 to 2 µg/mL. In addition, the IC50 at CYP3A4 (setting [6]) was found to be 5.9 µM. Further, the “CYP3A4 inhibition in comparison” value on CYP3A4 is on record as “lower IC50 inhibition of CYP3A4 inhibition”. Moreover, the “MIC Strep. Pneumoniae AUCC 488 penR” value in series [2] is 1 µg/mL. In addition, the “MIC Strep. Pneumoniae AUCC 489 penR, macR cMLS” value in series [3] lay in the range of 1 to 2.0 µg/mL. Moreover, the “MIC Strep. Pneumoniae AUCC 479 penS, macS” value in series [4] is 0.03 to 0.06 µg/mL. The “MIC Strep. Pneumoniae ATCC49619 QC strain” value in series [5] lay within 0.06 to 0.12 µg/mL.
For the substance “(3aS,4R,7R,9R,10R,11R,13R,15R,15aR)-10-{[(2S,3R,4S,6R)-4-(dimethylamino)-3-hydroxy-6-methyloxan-2-yl]oxy}-4-ethyl-3a,7,9,11,13,15-hexamethyl-1-{2-[(2R)-1-methylpyrrolidin-2-yl]ethyl}-11-{[(2E)-3-(quinolin-3-yl)prop-2-en-1-yl]oxy}-tetradecahydro-1H-oxacyclotetradeca[4,3-d][1,3]oxazole-2,6,8,14-tetrone [Compound 13P]”, the “MIC Strep. Pneumoniae AUCC 483 penS, macR cMLS” value in series [1] is 0.06 to 0.12 µg/mL. In addition, on CYP3A4 (read-out: IC50 CYP3A4 (testosterone), 50 μM testosterone), the IC50 stood at 6.3 µM. Moreover, the “CYP3A4 inhibition in comparison” value on CYP3A4 is on record as “lower IC50 inhibition of CYP3A4 inhibition”. Besides, the “MIC Strep. Pneumoniae AUCC 488 penR” value in series [2] lay in the range of 0.5 to 1 µg/mL. For the same substance, in series [3], the “MIC Strep. Pneumoniae AUCC 489 penR, macR cMLS” value fell in the range of 0.12 to 0.25 µg/mL. Besides, in series [4], the “MIC Strep. Pneumoniae AUCC 479 penS, macS” value was 0.015 to 0.03 µg/mL. In addition, in series [5], the “MIC Strep. Pneumoniae ATCC49619 QC strain” value fell in the range of 0.03 to 0.06 µg/mL.
